Results: ChEMBL document CHEMBL5303573, “Mapping human microbiome drug metabolism by gut bacteria and their genes” (Nature, 2019)

Tests used:
[1] = The drug is tested on Clostridium asparagiforme strain: DSM15981 for biotransformation. The drug concentrations were measured before and after a 12-h incubation by liquid-chromatography-coupled mass spectrometry (LC–MS); format: ADME; parameters: dose 2 uM, timepoint 0 vs 12 hours; details: enterocloster asparagiformis, 2 µM
[2] = The drug is tested on Providencia stuartii strain: ATCC25827 for biotransformation. The drug concentrations were measured before and after a 12-h incubation by liquid-chromatography-coupled mass spectrometry (LC–MS); details: 2 µM
[3] = The drug is tested on Eggerthella lenta strain: ATCC25559 for biotransformation. The drug concentrations were measured before and after a 12-h incubation by liquid-chromatography-coupled mass spectrometry (LC–MS); details: 2 µM
[4] = The drug is tested on Bacteroides fragilis strain: HMW615 for biotransformation. The drug concentrations were measured before and after a 12-h incubation by liquid-chromatography-coupled mass spectrometry (LC–MS); details: 2 µM
[5] = victivallis vadensis, 12 h, 2 µM
Description: The drug is tested on Victivallis vadensis strain: ATCC BAA-548 for biotransformation. The drug concentrations were measured before and after a 12-h incubation by liquid-chromatography-coupled mass spectrometry (LC–MS)

[6] = The drug is tested on Bacteroides ovatus strain: ATCC8483 for biotransformation. The drug concentrations were measured before and after a 12-h incubation by liquid-chromatography-coupled mass spectrometry (LC–MS); details: 2 µM
[7] = The drug is tested on Anaerococcus hydrogenalis strain: DSM7454 for biotransformation. The drug concentrations were measured before and after a 12-h incubation by liquid-chromatography-coupled mass spectrometry (LC–MS); details: 2 µM
[8] = The drug is tested on Eubacterium biforme strain: DSM3989 for biotransformation. The drug concentrations were measured before and after a 12-h incubation by liquid-chromatography-coupled mass spectrometry (LC–MS); details: holdemanella biformis, 2 µM
[9] = The drug is tested on Clostridium hathewayi strain: DSM13479 for biotransformation. The drug concentrations were measured before and after a 12-h incubation by liquid-chromatography-coupled mass spectrometry (LC–MS); details: hungatella hathewayi, 2 µM
[10] = clostridioides difficile, 12 h, 2 µM
Description: The drug is tested on Clostridium difficile strain: 120 for biotransformation. The drug concentrations were measured before and after a 12-h incubation by liquid-chromatography-coupled mass spectrometry (LC–MS)

SMILES	Bacterial Biotransformation [1]	Bacterial Biotransformation [2]	Bacterial Biotransformation [3]	Bacterial Biotransformation [4]	Bacterial Biotransformation [5]	Bacterial Biotransformation [6]	Bacterial Biotransformation [7]	Bacterial Biotransformation [8]	Bacterial Biotransformation [9]	Bacterial Biotransformation [10]
CCN(CC)C(=O)C1(c2ccccc2)CC1CN (configuration not stated)	Compound NOT metabolized	Compound NOT metabolized	Compound NOT metabolized	Compound NOT metabolized	Compound NOT metabolized	Compound NOT metabolized	Compound NOT metabolized			
Cc1nc(Nc2ncc(C(=O)Nc3c(C)cccc3Cl)s2)cc(N2CCN(CCO)CC2)n1.O [DASATINIB]	Compound NOT metabolized	Compound NOT metabolized	Compound NOT metabolized		Compound NOT metabolized	Compound NOT metabolized	Compound NOT metabolized			
CCN(CC)CCOC(=O)C1(C2CCCCC2)CCCCC1 [DICYCLOMINE]			Compound metabolized		Compound NOT metabolized	Compound NOT metabolized	Compound NOT metabolized			
CN(C)CCOC(C)(c1ccccc1)c1ccccn1.O=C(O)CCC(=O)O (configuration not stated) [DOXYLAMINE SUCCINATE]	Compound NOT metabolized	Compound NOT metabolized		Compound NOT metabolized	Compound NOT metabolized	Compound NOT metabolized	Compound NOT metabolized			
CCOC(=O)[C@H](CCc1ccccc1)N[C@@H](C)C(=O)N1CCC[C@H]1C(=O)O.O=C(O)/C=C\C(=O)O [ENALAPRIL MALEATE]	Compound NOT metabolized	Compound NOT metabolized		Compound NOT metabolized	Compound NOT metabolized	Compound NOT metabolized	Compound NOT metabolized			
CN1CCN(C(=O)O[C@H]2c3nccnc3C(=O)N2c2ccc(Cl)cn2)CC1 [ESZOPICLONE]	Compound NOT metabolized	Compound NOT metabolized	Compound NOT metabolized	Compound NOT metabolized	Compound NOT metabolized	Compound NOT metabolized	Compound NOT metabolized			
OCCN1CCN(CCCN2c3ccccc3Sc3ccc(C(F)(F)F)cc32)CC1 [FLUPHENAZINE]	Compound NOT metabolized		Compound NOT metabolized	Compound NOT metabolized	Compound NOT metabolized	Compound NOT metabolized	Compound NOT metabolized			
Cc1ccc(S(=O)(=O)NC(=O)NN2CC3CCCC3C2)cc1 (configuration not stated) [GLICLAZIDE]	Compound NOT metabolized	Compound NOT metabolized	Compound NOT metabolized	Compound NOT metabolized	Compound NOT metabolized	Compound NOT metabolized	Compound NOT metabolized			
COC1=C(OC)C(=O)C(CCCCCCCCCCO)=C(C)C1=O [IDEBENONE]	Compound NOT metabolized	Compound NOT metabolized	Compound NOT metabolized		Compound NOT metabolized	Compound NOT metabolized	Compound NOT metabolized			
Cc1ccc(NC(=O)c2ccc(CN3CCN(C)CC3)cc2)cc1Nc1nccc(-c2cccnc2)n1 [IMATINIB]		Compound NOT metabolized	Compound NOT metabolized			Compound NOT metabolized	Compound NOT metabolized	Compound NOT metabolized		
CC1Cc2ccccc2N1NC(=O)c1ccc(Cl)c(S(N)(=O)=O)c1 (configuration not stated) [INDAPAMIDE]	Compound NOT metabolized			Compound NOT metabolized	Compound NOT metabolized	Compound NOT metabolized	Compound NOT metabolized		Compound NOT metabolized	Compound NOT metabolized
COc1ccc2c(c1)c(CC(=O)O)c(C)n2C(=O)c1ccc(Cl)cc1 [INDOMETHACIN]		Compound NOT metabolized	Compound NOT metabolized	Compound NOT metabolized	Compound NOT metabolized	Compound metabolized	Compound NOT metabolized			
CCC(C)n1ncn(-c2ccc(N3CCN(c4ccc(OCC5COC(Cn6cncn6)(c6ccc(Cl)cc6Cl)O5)cc4)CC3)cc2)c1=O (configuration not stated) [ITRACONAZOLE]	Compound NOT metabolized	Compound NOT metabolized	Compound NOT metabolized	Compound NOT metabolized	Compound NOT metabolized	Compound NOT metabolized	Compound NOT metabolized			
CN1CCN(C2=Nc3ccccc3Oc3ccc(Cl)cc32)CC1.O=C(O)CCC(=O)O [LOXAPINE SUCCINATE]	Compound NOT metabolized		Compound NOT metabolized	Compound NOT metabolized	Compound NOT metabolized	Compound NOT metabolized	Compound NOT metabolized			
COc1ccccc1OCC(O)COC(N)=O (configuration not stated) [METHOCARBAMOL]	Compound NOT metabolized	Compound NOT metabolized	Compound NOT metabolized	Compound NOT metabolized	Compound NOT metabolized	Compound NOT metabolized				
CCN(CC)CCOC(=O)C(Cc1cccc2ccccc12)CC1CCCO1.O=C(O)C(=O)O (configuration not stated) [NAFRONYL OXALATE]	Compound NOT metabolized	Compound NOT metabolized		Compound NOT metabolized	Compound NOT metabolized	Compound NOT metabolized	Compound NOT metabolized			
C=CCN1CC[C@]23c4c5ccc(O)c4O[C@H]2C(=O)CC[C@@]3(O)[C@H]1C5 [NALOXONE]	Compound NOT metabolized	Compound NOT metabolized	Compound metabolized		Compound NOT metabolized	Compound metabolized	Compound NOT metabolized			
COc1ccc2cc([C@H](C)C(=O)O)ccc2c1 [NAPROXEN]		Compound NOT metabolized	Compound NOT metabolized	Compound metabolized	Compound NOT metabolized		Compound NOT metabolized		Compound NOT metabolized	Compound NOT metabolized
CCc1nn(CCCN2CCN(c3cccc(Cl)c3)CC2)c(=O)n1CCOc1ccccc1 [NEFAZODONE]	Compound NOT metabolized	Compound NOT metabolized	Compound NOT metabolized	Compound NOT metabolized	Compound NOT metabolized	Compound NOT metabolized	Compound NOT metabolized			
CO[C@]12C[C@@H](COC(=O)c3cncc(Br)c3)CN(C)[C@@H]1Cc1cn(C)c3cccc2c13 [NICERGOLINE]		Compound NOT metabolized	Compound NOT metabolized	Compound NOT metabolized	Compound NOT metabolized	Compound NOT metabolized				
NC(=O)N1c2ccccc2CC(=O)c2ccccc21 [OXCARBAZEPINE]	Compound NOT metabolized	Compound metabolized	Compound metabolized		Compound NOT metabolized	Compound NOT metabolized	Compound NOT metabolized			
CN(C(=O)CN(CCO)CC(=O)N(C)C(C)(C)Cc1ccccc1)C(C)(C)Cc1ccccc1 [OXETHAZAINE]	Compound NOT metabolized	Compound NOT metabolized	Compound NOT metabolized		Compound NOT metabolized	Compound NOT metabolized	Compound NOT metabolized			
CCN(CC)CC#CCOC(=O)C(O)(c1ccccc1)C1CCCCC1.Cl (configuration not stated) [OXYBUTYNIN CHLORIDE]		Compound NOT metabolized	Compound NOT metabolized		Compound NOT metabolized	Compound NOT metabolized	Compound NOT metabolized			
CCCN1C[C@H](CSC)C[C@@H]2c3cccc4[nH]cc(c34)C[C@H]21.CS(=O)(=O)O [PERGOLIDE MESYLATE]	Compound NOT metabolized	Compound NOT metabolized	Compound NOT metabolized	Compound NOT metabolized	Compound NOT metabolized	Compound NOT metabolized	Compound NOT metabolized			
